Key:
[1] = In vitro catalase activity (colorimetric peroxidase/ABTS-coupled assay); format: biochemical; settings: relative to C7 (EUK-8) set at 100%, 10 μM compound, 100 μM hydrogen peroxide
Experimental: The catalase activity of SOD/Catalase mimetics used in the process was determined as previously described by Doctrow et al., 2002, J. Med. Chem. 45, 4549-4558. Briefly, catalase activity was measured by incubating the sample compound with hydrogen peroxide and determining the amount of hydrogen peroxide remaining after a period of time using a colorimetric peroxidase-coupled assay method. 10 μM sample compound and 100 μM hydrogen peroxide in 40 mM sodium phosphate pH 7.4 were incubated together at ambient temperature in a multi-well plate. After the desired reaction period had elapsed, 20 μl of peroxidase/ABTS reagent was added (peroxidase/ABTS reagent contained […] of 50 mM Na phosphate, pH 7.4, 1 mg horseradish peroxidase (1310 U/mg) and 1.6 g ABTS). After five minutes, absorbance at 750 nm was determined.
The amount of hydrogen peroxide remaining was calculated based on a standard curve. To compare rates of catalase reaction, the amount of hydrogen peroxide consumed at 20 minutes was determined.
(rate obtained for SOD/Catalase mimetic)/(rate obtained for C7 (EUK-8))×100%

[2] = system: radiation-induced apoptosis; test: Protection against radiation-induced apoptosis / anti-apoptotic activity; format: cell-based
Cytotoxicity = format: cell-based
[3] = salen-metal complexes, pH 7.4, hydrogen peroxide consumed at 20 minutes
[4] = orally bioavailable metalloporphyrin derivatives, pH 7.4, 20 minutes

SMILES | Relative Catalase Rate [1, 3] [%] | further results
[Cl-].[Mn+3].[O-]c1ccccc1C=NCCN=Cc1ccccc1[O-] [C7 (EUK-8)] | 100 | 
CC(=NCCN=C(C)c1ccccc1[O-])c1ccccc1[O-].CC(=O)[O-].[Mn+3] [C85] | 31 | 
C1=Cc2nc1cc1ccc([n-]1)c(C1CC1)c1nc(cc3ccc([n-]3)c2C2CC2)C=C1.CC(=O)[O-].[Mn+3] [EUK-418, {[{(Porphine-5,15-diyl)bis[cyclopropyl-diyl]}] (2-)-N^21, N^22, N^23, N^24} manganese(III) acetate] |  | protective effect against radiation-induced apoptosis (in words) [2]: protective effect against radiation-induced apoptosis; Relative Catalase Rate [1, 4]: 70%
C1=Cc2nc1cc1ccc([n-]1)c(C1CCOCC1)c1nc(cc3ccc([n-]3)c2C2CCOCC2)C=C1.[Cl-].[Mn+3] [EUK-451, {[{(Porphine-5,15-diyl)bis[4-Tetrahydropyrano-diyl]}](2-)-N^21, N^22, N^23, N^24} manganese(III) chloride] |  | cytotoxicity (in words) (Cytotoxicity): low; anti-apoptotic activity (in words) [2]: high; protective effect against radiation-induced apoptosis (in words) [2]: protective effect against radiation-induced apoptosis; Relative Catalase Rate [1, 4]: 140%
C1=Cc2nc1cc1ccc([n-]1)c(Cc1ccccc1)c1nc(cc3ccc([n-]3)c2Cc2ccccc2)C=C1.CC(=O)[O-].[Mn+3] [EUK-423, {[{(Porphine-5,15-diyl)bis[benzyl-diyl]}] (2-)-N^21, N^22, N^23, N^24} manganese(III) acetate] |  | protective effect against radiation-induced apoptosis (in words) [2]: protective effect against radiation-induced apoptosis; Relative Catalase Rate [1, 4]: 56%
CC(=O)[O-].COc1cccc(C=NCCN=Cc2cccc(OC)c2[O-])c1[O-].[Mn+3] [C32] | 188 | 
[Cl-].[Mn+3].[O-]c1ccccc1CNCCNCc1ccccc1[O-] [C84] | 31 | 
CC(=O)[O-].[Mn+3].[O-]c1c(F)cccc1C=NCCN=Cc1cccc(F)c1[O-] [C36] | 128 | 
C1=Cc2nc1cc1ccc([n-]1)c(C1CCCCC1)c1nc(cc3ccc([n-]3)c2C2CCCCC2)C=C1.[Cl-].[Mn+3] [EUK-452, {[{(Porphine-5,15-diyl)bis[cyclohexyl-diyl]}] (2-)-N^21, N^22, N^23, N^24} manganese(III) chloride] |  | protective effect against radiation-induced apoptosis (in words) [2]: protective effect against radiation-induced apoptosis; Relative Catalase Rate [1, 4]: 105%
CC(=O)[O-].[Mn+3].[O-]c1ccccc1C=NCCN=Cc1ccccc1[O-] [C31] | 92 | 
CC(=O)[O-].COc1cc(Br)c([O-])c(C=Nc2ccccc2N=Cc2cc(OC)cc(Br)c2[O-])c1.[Mn+3] [C76] | 427 | 
CC(=O)[O-].[Mn+3].[O-]c1c2cccc1OCCOCCOCCOc1cccc(c1[O-])C=Nc1ccccc1N=C2 [C82] | 345 | 
COc1cccc(C=NCCN=Cc2cccc(OC)c2[O-])c1[O-].[Cl-].[Mn+3] [C40 (EUK-134)] | 155 | 
COc1cccc(C=Nc2ccccc2N=Cc2cccc(OC)c2[O-])c1[O-].[Cl-].[Mn+3] [C81] | 493 | 
CC(=O)[O-].COc1ccc(-c2c3nc(cc4ccc([n-]4)c(-c4ccc(OC)cc4)c4nc(cc5ccc2[n-]5)C=C4)C=C3)cc1.[Mn+3] [EUK-450, {[{(Porphine-5,15-diyl)bis[benzene-1,4 diyl (4-methyl-oxy)]}](2-)-N^21, N^22, N^23, N^24} manganese(III) acetate] |  | protective effect against radiation-induced apoptosis (in words) [2]: protective effect against radiation-induced apoptosis; Relative Catalase Rate [1, 4]: 84%
CC(=O)[O-].COc1cc([O-])c(C=NCCN=Cc2c([O-])cc(OC)cc2OC)c(OC)c1.[Mn+3] [C35] | 25 | 
[Cl-].[Mn+3].[O-]c1c(F)cccc1C=NCCN=Cc1cccc(F)c1[O-] [C37] | 117 | 
CC(=O)[O-].[Mn+3].[O-]c1ccccc1CNCCNCc1ccccc1[O-] [C83] | 42 | 
CC(=O)[O-].CCc1c2nc(c(CC)c3ccc([n-]3)c(CC)c3nc(c(CC)c4ccc1[n-]4)C=C3)C=C2.[Mn+3] [EUK-425, (5,10,15,20-Tetraethylporphyrinato) manganese (III) acetate] |  | Relative Catalase Rate [1, 4]: 84%
CC(=O)[O-].COc1ccc(C=NCCN=Cc2ccc(OC)cc2[O-])c([O-])c1.[Mn+3] [C33] | 38 | 
COc1ccc(C=NCCN=Cc2ccc(OC)cc2[O-])c([O-])c1.[Cl-].[Mn+3] [C34] | 46 | 
